Measurements reported in patent US20240277745A1, “PEMAFIBRATE AND/OR TOFOGLIFLOZIN FOR USE IN TREATING LIVER DISEASE” (KOWA COMPANY, LTD, priority 2021, published 2024).

Key:
adults with NAFLD [1] = experiment: Example 1 clinical study: liver stiffness by MRE; type: in vivo, human; conditions: for Liver stiffness by MRE, Responder / Liver stiffness by MRE, percent change from baseline: pemafibrate 0.4 mg/day BID; for Liver stiffness by MRE, mean difference: pemafibrate vs placebo
Experimental: (§1) This was a placebo-controlled, randomized, double-blind, parallel-group, study in adults with NAFLD. Subjects were administered pemafibrate tablets (0.4 mg/day, BID) or placebo tablets for 72 weeks following a screening period of from 2 to 8 weeks. The primary endpoint was percent change from baseline in liver fat content, measured by MRI-PDFF at week 24. The key secondary endpoints were percent changes in liver stiffness and ALT levels from baseline to week 72 and 24, respectively. The study was conducted in compliance with relevant guidelines, GCP guidance, and the Declaration of Helsinki.
(§2) Patients with a hepatic fat fraction ≥10% on MRI-PDFF, liver stiffness (measured using magnetic resonance elastography, MRE)≥2.5 kPa and elevated ALT (>40 U/L for men, >30 U/L for women) were enrolled. Patients were excluded in case of body mass index (BMI)<22 kg/m^2, uncontrolled diabetes (HbA1c≥8%), impaired renal function (estimated glomerular filtration rate, eGFR, <30 mL·min^−1·1.73^−1·m^−2 or on dialysis), cirrhosis, biliary obstruction, or chronic liver diseases other than NAFLD.
(§3) Subjects took their assigned medication (pemafibrate 0.2 mg tablet or placebo) orally, one tablet, twice daily, for 72 weeks. Study visits were set every 4 weeks from the start of treatment to week 24 and every 8 weeks from week 24 onwards. Liver fat content and liver stiffness were measured at screening examinations that took place pre-randomization and subsequently at weeks 0, 24, 48, and 72.
(§4) All imaging assessment procedures were performed blinded. The equipment used in all facilities was standardized to a 3.0 T MR Imaging System (GE Healthcare, Little Chalfont, UK). As an application, IDEAL-IQ for MRI-PDFF and MR-touch for MRE were used. Detailed imaging conditions are described in the “Imaging Procedure Manual” and imaging procedures were standardized throughout all tests. Imaging was performed during fasting (≥4 h postprandial) and the timing of testing (pre-breakfast/post-breakfast to pre-lunch/post-lunch) was unified for each patient throughout the study.
(§5) The primary efficacy endpoint was percent change in hepatic fat content, as measured using MRI-PDFF. Liver stiffness measured using MRE was a secondary endpoint and similarly assessed percent change from baseline values. Other efficacy endpoints included liver function, fibrosis and inflammatory markers, and lipid markers.

[2] = tested on: LDL receptor knockout mice and KK-A mice fed with an MCD (methionine-choline-deficient) diet; conditions: cited from earlier work
adults with NAFLD [3] = experiment: Example 1 clinical study: lipids; type: in vivo, human; conditions: for HDL cholesterol, percent change from baseline / LDL cholesterol, percent change from baseline / Non-HDL cholesterol, percent change from baseline / Total cholesterol, percent change from baseline / Triglycerides, percent change from baseline: pemafibrate 0.4 mg/day BID; for HDL cholesterol, mean difference / LDL cholesterol, mean difference / Non-HDL cholesterol, mean difference / Total cholesterol, mean difference / Triglycerides, mean difference: pemafibrate vs placebo
Experimental: as §1, §2, §3, §5

[4] = reported by Ishibashi 2016; cited from earlier work
adults with NAFLD [5] = experiment: Example 1 clinical study: liver function (ALT, AST); type: in vivo, human; conditions: for ALT, percent change from baseline / AST, percent change from baseline: pemafibrate 0.4 mg/day BID; for ALT, mean difference / AST, mean difference: pemafibrate vs placebo
Experimental: as §1, §2, §3, §5

adults with NAFLD [6] = experiment: Example 1 clinical study: liver fat content by MRI-PDFF; type: in vivo, human; conditions: for Liver fat content by MRI-PDFF, Responder / Liver fat content by MRI-PDFF, percent change from baseline: pemafibrate 0.4 mg/day BID; for Liver fat content by MRI-PDFF, mean difference: pemafibrate vs placebo
Experimental: as §1, §2, §3, §4, §5

What does the source list for “(R)-2-[3-[[N-(benzoxazol-2-yl)-N-3-(4-methoxyphenoxy)propyl]aminomethyl]phenoxy]butyric acid [Pemafibrate]”?
liver stiffness when measured by MRE (in words) (adults with NAFLD [1]; Example 1 study, summary): significant improvements; Liver stiffness by MRE, Responder (adults with NAFLD [1]; Week 24): 19.0 (11) %; Liver stiffness by MRE, percent change from baseline (adults with NAFLD [1]; Week 24): −5.03%; Liver stiffness by MRE, mean difference (adults with NAFLD [1]; Week 24): −4.38%; Liver stiffness by MRE, Responder (adults with NAFLD [1]; Week 48): 37.9 (22) %; Liver stiffness by MRE, percent change from baseline (adults with NAFLD [1]; Week 48): −9.01%; Liver stiffness by MRE, mean difference (adults with NAFLD [1]; Week 48): −5.68%; Liver stiffness by MRE, Responder (adults with NAFLD [1]; Week 72): 25.9 (15) %; Liver stiffness by MRE, percent change from baseline (adults with NAFLD [1]; Week 72): −7.27%; Liver stiffness by MRE, mean difference (adults with NAFLD [1]; Week 72): −6.15%; ballooning of hepatocytes, fat deposition, number of Kupffer cells (in words) [2]: suppresses ballooning of hepatocytes and fat deposition and reduces the number of Kupffer cells; HDL cholesterol (in words) (adults with NAFLD [3]; Example 1 study, summary): significant reductions; LDL cholesterol (in words) (adults with NAFLD [3]; Example 1 study, summary): significant reductions; total cholesterol (in words) (adults with NAFLD [3]; Example 1 study, summary): significant reductions; HDL cholesterol, percent change from baseline (adults with NAFLD [3]; Week 24): −1.68%; LDL cholesterol, percent change from baseline (adults with NAFLD [3]; Week 24): −14.72%; Non-HDL cholesterol, percent change from baseline (adults with NAFLD [3]; Week 24): −13.82%; Total cholesterol, percent change from baseline (adults with NAFLD [3]; Week 24): −11.19%; Triglycerides, percent change from baseline (adults with NAFLD [3]; Week 24): −34.60%; HDL cholesterol, mean difference (adults with NAFLD [3]; Week 24): −7.57%; LDL cholesterol, mean difference (adults with NAFLD [3]; Week 24): −13.66%; Non-HDL cholesterol, mean difference (adults with NAFLD [3]; Week 24): −12.82%; Total cholesterol, mean difference (adults with NAFLD [3]; Week 24): −11.55%; Triglycerides, mean difference (adults with NAFLD [3]; Week 24): −31.11%; HDL cholesterol, percent change from baseline (adults with NAFLD [3]; Week 48): −6.40%; LDL cholesterol, percent change from baseline (adults with NAFLD [3]; Week 48): −14.22%; Non-HDL cholesterol, percent change from baseline (adults with NAFLD [3]; Week 48): −12.95%; Total cholesterol, percent change from baseline (adults with NAFLD [3]; Week 48): −11.55%; Triglycerides, percent change from baseline (adults with NAFLD [3]; Week 48): −27.11%; HDL cholesterol, mean difference (adults with NAFLD [3]; Week 48): −10.24%; LDL cholesterol, mean difference (adults with NAFLD [3]; Week 48): −16.37%; Non-HDL cholesterol, mean difference (adults with NAFLD [3]; Week 48): −14.24%; Total cholesterol, mean difference (adults with NAFLD [3]; Week 48): −13.19%; Triglycerides, mean difference (adults with NAFLD [3]; Week 48): −25.77%; HDL cholesterol, percent change from baseline (adults with NAFLD [3]; Week 72): −7.38%; LDL cholesterol, percent change from baseline (adults with NAFLD [3]; Week 72): −12.48%; Non-HDL cholesterol, percent change from baseline (adults with NAFLD [3]; Week 72): −11.92%; Total cholesterol, percent change from baseline (adults with NAFLD [3]; Week 72): −11.12%; Triglycerides, percent change from baseline (adults with NAFLD [3]; Week 72): −31.55%; HDL cholesterol, mean difference (adults with NAFLD [3]; Week 72): −11.86%; LDL cholesterol, mean difference (adults with NAFLD [3]; Week 72): −15.14%; Non-HDL cholesterol, mean difference (adults with NAFLD [3]; Week 72): −15.77%; Total cholesterol, mean difference (adults with NAFLD [3]; Week 72): −14.86%; Triglycerides, mean difference (adults with NAFLD [3]; Week 72): −32.67%; ALT concentrations (in words) [4]: much more modest decrease; LDL cholesterol (in words) [4]: increase; total cholesterol (in words) [4]: modest decrease; liver function as measured by ALT (in words) (adults with NAFLD [5]; Example 1 study, summary): significant improvements; ALT, percent change from baseline (adults with NAFLD [5]; Week 24): −39.53%; AST, percent change from baseline (adults with NAFLD [5]; Week 24): −9.21%; ALT, mean difference (adults with NAFLD [5]; Week 24): −27.08%; AST, mean difference (adults with NAFLD [5]; Week 24): −2.69%; ALT, percent change from baseline (adults with NAFLD [5]; Week 48): −42.53%; AST, percent change from baseline (adults with NAFLD [5]; Week 48): −9.75%; ALT, mean difference (adults with NAFLD [5]; Week 48): −26.75%; AST, mean difference (adults with NAFLD [5]; Week 48): −0.18%; ALT, percent change from baseline (adults with NAFLD [5]; Week 72): −43.84%; AST, percent change from baseline (adults with NAFLD [5]; Week 72): −9.61%; ALT, mean difference (adults with NAFLD [5]; Week 72): −33.60%; AST, mean difference (adults with NAFLD [5]; Week 72): −4.48%; Liver fat content by MRI-PDFF, Responder (adults with NAFLD [6]; Week 24): 20.7 (12) %; Liver fat content by MRI-PDFF, percent change from baseline (adults with NAFLD [6]; Week 24): −5.28%; Liver fat content by MRI-PDFF, mean difference (adults with NAFLD [6]; Week 24): −1.04%; Liver fat content by MRI-PDFF, Responder (adults with NAFLD [6]; Week 48): 10.3 (6) %; Liver fat content by MRI-PDFF, percent change from baseline (adults with NAFLD [6]; Week 48): 0.50%; Liver fat content by MRI-PDFF, mean difference (adults with NAFLD [6]; Week 48): 1.03%; Liver fat content by MRI-PDFF, Responder (adults with NAFLD [6]; Week 72): 22.4 (13) %; Liver fat content by MRI-PDFF, percent change from baseline (adults with NAFLD [6]; Week 72): −4.88%; Liver fat content by MRI-PDFF, mean difference (adults with NAFLD [6]; Week 72): −5.10%
